What was measured:
[1] = test system: S. typhimurium ST19 Mfd; assay: RNAP displacement (transcription roadblock) assay; type: biochemical; settings: Mfd 100 nM pre-incubated with ARM-1 (12.5 μM); without ARM-1 EC/IC=0.33
Procedure: FIGS. 2A-2D depict how ARM-1 affects Mfd's biochemical activity. FIG. 2A depicts how the kd of ARM-1 was determined using microscale thermophoresis. Data shown represent a minimum of three independent experiments. FIG. 2B depicts a NADH-coupled ATPase assay. ATP hydrolysis by Mfd was coupled to NADH oxidation. Phosphoenolpyruvate is converted to pyruvate by pyruvate kinase, transferring a phosphate group onto ADP, which is only present in the reaction following ATP hydrolysis by Mfd. Pyruvate is then converted to lactate by lactate dehydrogenase, oxidizing NADH to NAD^+. Absorbance at 340 nm by NADH is used to monitor the reaction. Data shown represent a minimum of 3 biological replicates. FIG. 2C depicts a transcription roadblock assay. A P32-labled 176 bp PCR fragment was incubated with E. coli RNAP along with saturating concentrations of ATP, GTP, and UTP. 100 nM S. typhimurium ST19 Mfd preincubated with indicated concentrations of ARM-1 was added and the reaction allowed to proceed for 6 minutes. DNA products were then resolved on a polyacrylamide gel and analyzed by phosphorimaging. […] Quantification of these gels is shown below each lane. […]
Mfd translocates along double-stranded DNA and dislodges stalled RNAP complexes. […] When quantified, a ratio of EC to IC of approximately 1 was observed, which was consistent with prior work. […]

[2] = test system: RpoB association with rDNA; assay: ChIP-qPCR of RpoB enrichment at rDNA; type: cell-based, S. typhimurium ST19; settings: treated 2 generations
[3] = test system: S. typhimurium ST19; assay: Luria-Delbruck fluctuation assay; type: cell-based; settings: 100 μM ARM-1, plated on 80 ng/ml ciprofloxacin
Procedure: FIGS. 3A-3C depict how ARM-1 reduces mutation frequency in culture and during infection. FIG. 3A depicts a Luria-Delbruck fluctuation assay with ARM-1 treatment. Single colonies of WT and Δmfd S. typhimurium ST19 were used to inoculate overnight cultures with appropriate antibiotic selection. Cultures were then diluted back to OD600 0.0005 and grown to OD600 0.5 with or without 100 μM ARM-1 treatment. Samples were plated on 80 ng/ml ciprofloxacin and grown overnight, then enumerated the following day. Data shown are the result of a minimum of 50 replicates. FIG. 3B depicts the invasion and infection efficiency in the presence of ARM-1. WT S. typhimurium ST19 in mid-log phase growth was used to infect HeLa cells. Invasion was allowed to proceed for 1 hour before uninternalized bacteria were removed and fresh media applied, containing vehicle control or 31.25 μM ARM-1. At the indicated timepoints, HeLa cells were lysed using 1% Triton-H2O and intracellular bacteria serially diluted and plated on LB for CFU enumeration. FIG. 3C depicts mutation frequency post mammalian cell infection. WT and Δmfd S. typhimurium ST19 were used to infect HeLa cells as described in FIG. 3B. Following infection, intracellular bacteria were harvested and plated on 50 μg/mL 5-fluorocytosine and grown overnight. Mutants were enumerated the following morning. […]

Cc1cc(Br)ccc1-c1ccc(CNCCCN(C)C)o1 [ARM-1, N^1-((5-(4-bromo-2-methylphenyl)furan-2-yl)methyl)-N^3,N^3-dimethylpropane-1,3-diamine]
EC/IC (elongation complex to initiation complex ratio) [1]: 0.46
RpoB association with rDNA ([2]; 5 mM ARM-1, WT cells): little change
RpoB association with rDNA ([2]; 10 mM ARM-1, WT cells): dramatic decrease
reduction in WT mutation frequency [3]: 3 fold
